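In this assay, cells in 96-well plates receive the compound at five concentrations for 48 hours. Endpoints are linearly interpolated between the surrounding concentrations. GI50 is the concentration that inhibits growth by half.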 The source made the active and inactive calls. Rule as the data show it: active = GI50 up to about 1.1 µM and inactive = higher.
Columns and labels:
Assay in all cases: NCI tumour cell line growth inhibition, 48 h
MDA-MB-231 = system: MDA-MB-231
OVCAR-4 = system: OVCAR-4
NCI-H23 = system: NCI-H23
SF-295 = system: SF-295
SNB-19 = system: SNB-19
HCT-116 = system: HCT-116
OVCAR-3 = system: OVCAR-3
IGROV-1 = system: IGROV-1
786-0 = system: 786-0
SK-MEL-2 = system: SK-MEL-2
MCF7 = system: MCF7
NCI-H522 = system: NCI-H522
NCI/ADR-RES = system: NCI/ADR-RES
PC-3 = system: PC-3
A498 = system: A498
SK-OV-3 = system: SK-OV-3
HOP-62 = system: HOP-62
LOX IMVI = system: LOX IMVI
Hs-578T = system: Hs-578T
CCRF-CEM = system: CCRF-CEM

Measured: GI50

COc1cc(C2c3cc4c(cc3OC(NN=C(C)C)C2C)OCO4)cc(OC)c1O (configuration not stated)
inactive: MDA-MB-231 27.9 µM | OVCAR-4 48.3 µM | NCI-H23 26.7 µM | SF-295 18.9 µM | SNB-19 85.5 µM | HCT-116 24.9 µM | OVCAR-3 19.5 µM | IGROV-1 15.7 µM | 786-0 28.1 µM | SK-MEL-2 8.61 µM | MCF7 12.4 µM | NCI-H522 3.94 µM | NCI/ADR-RES 18 µM | PC-3 20.8 µM

COP(=O)(OC)C(O)/C=C/c1ccco1 (configuration not stated)
inactive: OVCAR-4 > 100 µM | NCI-H23 > 100 µM | SF-295 > 100 µM | SNB-19 > 100 µM | HCT-116 > 100 µM | A498 > 100 µM | SK-OV-3 > 100 µM | OVCAR-3 > 100 µM | IGROV-1 > 100 µM | HOP-62 > 100 µM | 786-0 > 100 µM | SK-MEL-2 > 100 µM | MCF7 > 100 µM | NCI-H522 > 100 µM | LOX IMVI > 100 µM | Hs-578T > 100 µM | NCI/ADR-RES > 100 µM | PC-3 > 100 µM

O=C(c1ccccc1)c1ccc2c(c1)NC(=O)c1ccccc1SSc1ccccc1C(=O)N2
inactive: MDA-MB-231 > 100 µM | OVCAR-4 > 100 µM | NCI-H23 > 100 µM | SF-295 > 100 µM | SNB-19 > 100 µM | HCT-116 > 100 µM | A498 > 100 µM | SK-OV-3 > 100 µM | OVCAR-3 > 100 µM | IGROV-1 > 100 µM | HOP-62 > 100 µM | 786-0 > 100 µM | SK-MEL-2 > 100 µM | NCI-H522 > 100 µM | LOX IMVI > 100 µM | Hs-578T > 100 µM | CCRF-CEM > 100 µM | NCI/ADR-RES > 100 µM | PC-3 > 100 µM

CN(C)/C=C/C=C(/C=N/S(=O)(=O)C(F)(F)F)C1C=CN(S(=O)(=O)C(F)(F)F)C=C1
inactive: MDA-MB-231 31.1 µM | OVCAR-4 15.8 µM | NCI-H23 23.3 µM | SF-295 38.2 µM | HCT-116 29.2 µM | A498 41 µM | SK-OV-3 28.4 µM | OVCAR-3 32.4 µM | IGROV-1 54.3 µM | HOP-62 39.4 µM | 786-0 45.8 µM | SK-MEL-2 24.5 µM | NCI-H522 21.6 µM | LOX IMVI 42.8 µM | Hs-578T 69.2 µM | CCRF-CEM 27.1 µM | NCI/ADR-RES 30.3 µM

COc1ccccc1NC(=S)NN=C(C)c1cccc(C(C)=NNC(=S)Nc2ccccc2OC)n1
inactive: MDA-MB-231 5.16 µM | OVCAR-4 24.4 µM | NCI-H23 33.9 µM | SF-295 26.8 µM | SNB-19 77.4 µM | HCT-116 2.95 µM | A498 29.1 µM | SK-OV-3 99.8 µM | OVCAR-3 7.87 µM | IGROV-1 25.5 µM | HOP-62 42.8 µM | 786-0 6.64 µM | SK-MEL-2 44.9 µM | MCF7 29.1 µM | NCI-H522 45.6 µM | LOX IMVI 31.8 µM | CCRF-CEM 4.78 µM | NCI/ADR-RES 10.4 µM | PC-3 27 µM

O=P1(Oc2ccc(Cl)cc2)OCCS1 (configuration not stated)
inactive: MDA-MB-231 > 100 µM | NCI-H23 > 100 µM | SF-295 > 100 µM | SNB-19 > 100 µM | HCT-116 > 100 µM | A498 > 100 µM | SK-OV-3 > 100 µM | IGROV-1 > 100 µM | HOP-62 > 100 µM | 786-0 > 100 µM | SK-MEL-2 > 100 µM | NCI-H522 > 100 µM | LOX IMVI > 100 µM | Hs-578T > 100 µM | CCRF-CEM > 100 µM | NCI/ADR-RES > 100 µM | PC-3 > 100 µM

COc1ccc2c(c1)CCC1=CC3(CCC12C)SCCS3 (configuration not stated)
inactive: MDA-MB-231 4.08 µM | OVCAR-4 > 10 µM | NCI-H23 6.82 µM | SF-295 3.87 µM | SNB-19 > 10 µM | SK-OV-3 3.27 µM | OVCAR-3 3.3 µM | IGROV-1 6.19 µM | HOP-62 > 10 µM | 786-0 5.64 µM | MCF7 3.48 µM | NCI-H522 2.99 µM | LOX IMVI 7.06 µM | CCRF-CEM 3.97 µM | NCI/ADR-RES 3.56 µM | PC-3 8.26 µM

O=C1CCCSCCCC(=O)CCCSCCC1
inactive: MDA-MB-231 > 100 µM | OVCAR-4 > 100 µM | NCI-H23 > 100 µM | SF-295 > 100 µM | SNB-19 > 100 µM | HCT-116 > 100 µM | SK-OV-3 > 100 µM | OVCAR-3 > 100 µM | IGROV-1 > 100 µM | HOP-62 > 100 µM | 786-0 > 100 µM | MCF7 > 100 µM | NCI-H522 > 100 µM | LOX IMVI > 100 µM | CCRF-CEM > 100 µM | NCI/ADR-RES > 100 µM | PC-3 > 100 µM

Source: ChEMBL document CHEMBL1201862, “PubChem BioAssay data set” (2004)
